Target: T1, Lmr1 (Q6ZMQ8) (Homo sapiens, UniProt Q6ZMQ8)
T1 construct: purchased PamGene (PamChip PTK array, Upstream Kinase Analysis)
T1 sequence (Q6ZMQ8 1-1374): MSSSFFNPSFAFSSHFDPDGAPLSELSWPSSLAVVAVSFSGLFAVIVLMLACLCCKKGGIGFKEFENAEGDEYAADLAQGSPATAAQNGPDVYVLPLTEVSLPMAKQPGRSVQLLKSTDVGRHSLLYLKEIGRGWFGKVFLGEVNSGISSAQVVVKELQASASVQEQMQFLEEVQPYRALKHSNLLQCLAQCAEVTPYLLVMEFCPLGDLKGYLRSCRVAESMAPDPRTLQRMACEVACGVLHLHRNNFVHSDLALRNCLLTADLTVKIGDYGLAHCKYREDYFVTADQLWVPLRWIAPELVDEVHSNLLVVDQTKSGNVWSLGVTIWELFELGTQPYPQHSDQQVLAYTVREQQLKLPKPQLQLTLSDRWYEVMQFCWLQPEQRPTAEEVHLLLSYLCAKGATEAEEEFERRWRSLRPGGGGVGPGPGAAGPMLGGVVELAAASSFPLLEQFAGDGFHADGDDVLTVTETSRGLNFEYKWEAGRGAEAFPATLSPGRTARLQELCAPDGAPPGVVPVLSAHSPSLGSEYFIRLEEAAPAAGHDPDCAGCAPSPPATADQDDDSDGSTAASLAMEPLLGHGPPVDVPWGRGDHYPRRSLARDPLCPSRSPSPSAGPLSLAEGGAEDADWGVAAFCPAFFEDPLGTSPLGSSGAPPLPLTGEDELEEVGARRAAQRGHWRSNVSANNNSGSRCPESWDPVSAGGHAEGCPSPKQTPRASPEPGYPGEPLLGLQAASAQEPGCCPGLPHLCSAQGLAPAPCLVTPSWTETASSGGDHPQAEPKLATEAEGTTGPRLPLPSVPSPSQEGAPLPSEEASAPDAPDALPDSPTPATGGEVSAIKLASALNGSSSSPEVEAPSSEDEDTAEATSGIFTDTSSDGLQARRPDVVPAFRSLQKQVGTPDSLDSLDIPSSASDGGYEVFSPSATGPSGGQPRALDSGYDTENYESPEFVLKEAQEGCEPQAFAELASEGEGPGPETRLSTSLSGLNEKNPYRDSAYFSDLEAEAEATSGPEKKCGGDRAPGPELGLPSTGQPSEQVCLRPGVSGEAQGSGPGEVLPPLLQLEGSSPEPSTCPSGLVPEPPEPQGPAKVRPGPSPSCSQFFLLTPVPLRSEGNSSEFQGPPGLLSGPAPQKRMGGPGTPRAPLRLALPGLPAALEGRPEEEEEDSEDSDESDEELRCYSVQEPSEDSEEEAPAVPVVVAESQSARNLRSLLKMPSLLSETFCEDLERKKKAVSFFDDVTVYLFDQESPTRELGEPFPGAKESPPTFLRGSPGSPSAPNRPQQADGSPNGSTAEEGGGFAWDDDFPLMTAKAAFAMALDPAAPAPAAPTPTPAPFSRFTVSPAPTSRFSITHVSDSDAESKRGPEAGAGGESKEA
Assay: PamChip tyrosine kinase microarray
Format: biochemical
Conditions: 0.1 µM, HL60 lysate
Summary of the method: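 HL60 (AML) cell lysate was spiked with compound at 0.001, 0.01, 0.1, 1, 10 and 50 µM, or 2% v/v DMSO as control, then profiled in technical replicates on a tyrosine kinase peptide array of 196 phosphosites. Kinase activity was inferred from peptide-set changes using an upstream kinase tool.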

`COc1ccc(/C=C2\N=C(C)N(c3ccc(CC(=O)NCc4ccccc4)cc3)C2=O)cc1` [Compound 4c, (Z)-N-Benzyl-2-(4-(4-(4-methoxybenzylidene)-2-methyl-5-oxo-4,5-dihydro-1H-imidazol-1-yl)phenyl)acetamide] was tested. Which “Mean Final score (Kinase score)” value did it give?
The value was 2.52.

What about the “Mean Kinase Statistic” value of the same compound?
The value was -1.33.

What about the “Mean Significance Score” value of the same compound?
Its value is 1.989.

And the “Mean Specificity Score” value?
The value was 0.4793.
